Assay results taken from patent publication US20210392890A1, “COMPOSITIONS COMPRISING PYRIDINE CARBOXYLATE HERBICIDES AND PLANT GROWTH REGULATORS” (Corteva Agriscience LLC, priority 2018, published 2021).
Values joined by “and” are separate entries in the source; they are usually repeats but may differ in a detail not shown here. Equal values may be shown once. Read-outs that look alike come from different tables or passages of the source.

Assays:
Assay type in all cases: in vivo
Glycine max (soybean) = assay: Greenhouse postemergence herbicidal effect on GLXMA
Source text: (§1) Seeds of the desired test plant species were planted in a 90:10% v/v (volume/volume) mixture of PRO-MIX® BX (Premier Tech Horticulture, Quakertown, Pa., USA) and PROFILE® GREENS GRADE™ (Profile Products LLC, Buffalo Grove, Ill., USA) planting mixture, which typically has a pH of 5.2 to 6.2 and an organic matter content of at least 50 percent, in plastic pots with a surface area of 103.2 square centimeters (cm^2). In some aspects, to help ensure good germination and healthy plants, a fungicide treatment and/or other chemical or physical treatment was applied. The plants were grown for 7-36 days (d) in a greenhouse with an approximate 14-hour (h) photoperiod which was maintained at about 23° C. during the day and 22° C. during the night. Nutrients and water were added on a regular basis and supplemental lighting was provided with overhead metal halide 1000-Watt lamps as necessary. The plants were employed for testing when they reached the second or third true leaf stage.
Emulsifiable concentrates of each of each pyridine carboxylate herbicide (Compound A or Compound B) were prepared at 100 grams acid equivalent per liter (g ae/L). The emulsifiable concentrates also included a safener, cloquintocet-mexyl, at 120 grams active ingredient per liter (g ai/L). An aliquot of each emulsifiable concentrate was placed in a 25 mL glass vial and diluted with an aqueous mixture of 1.25% (v/v) ACTIROB® B esterified rapeseed oil (Bayer Crop Science, Research Triangle Park, N.C., USA) or MSO® Concentrate with LECI-TECH® methylated soybean oil (Loveland Products, Loveland, Colo., USA) to obtain concentrated stock solutions at the highest application rate for each herbicide, based upon a 12 milliliter (mL) application volume at a rate of 187 liters per hectare (L/ha). The concentrated stock solutions were further diluted with an aqueous mixture of 1.25% v/v ACTIROB® B or MSO® Concentrate with LECI-TECH® to obtain stock solutions at reduced application rates for each herbicide. Spray solutions of the herbicide combinations (Compound A or Compound B plus the PGR) were prepared by adding weighed amounts or aliquots of the PGR to the stock solutions of Compound A or Compound B to form 12-mL spray solutions in two-way combinations.
The spray solutions were applied to the plant material with an overhead Mandel track sprayer equipped with 8002E nozzles calibrated to deliver 187 L/ha over an application area of 0.503 square meters (m^2) at a spray height of 18 inches (43 centimeters (cm)) above the average plant canopy. Control plants were sprayed in the same manner with the solvent blank. All pyridine carboxylate herbicide (component a) application rates are given as “g ae/ha” and all PGR (component b) application rates are given as “g ai/ha.”
(§2) The treated plants and control plants were placed in a greenhouse as described above and watered by sub-irrigation to prevent wash-off of the test compounds. After 20-22 d, the condition of the test plants as compared with that of the control plants was determined visually and scored on a scale of 0 to 100 percent where 0 corresponds to no injury and 100 corresponds to complete kill.

[1] = tested on: Matricaria chamomilla (wild chamomile); assay: Greenhouse postemergence herbicidal effect on MATCH
Source text: as §1
(§3) Emulsifiable concentrates of each of each pyridine carboxylate herbicide (Compound A or Compound B) were prepared at 100 grams acid equivalent per liter (g ae/L). The emulsifiable concentrates also included a safener, cloquintocet-mexyl, at 120 grams active ingredient per liter (g ai/L). […]
as §2

[2] = tested on: Veronica hederifolia (ivy-leaved speedwell); assay: Greenhouse postemergence herbicidal effect on VERHE
Source text: as §1, §3, §2

[3] = tested on: Echinochloa crus-galli (barnyard grass); assay: Greenhouse postemergence herbicidal effect on ECHCG; conditions: Ethephon 0 g/ha
Source text: as §1, §3
(§4) The treated plants and control plants were placed in a greenhouse as described above and watered by sub-irrigation to prevent wash-off of the test compounds. After 20-22 d, the condition of the test plants as compared with that of the control plants was determined visually and scored on a scale of 0 to 100 percent where 0 corresponds to no injury and 100 corresponds to complete kill. […]

[4] = tested on: Rumex obtusifolia (broadleaf dock); assay: Greenhouse postemergence herbicidal effect on RUMOB; conditions: Ethephon 0 g/ha
Source text: as §1, §3, §4

rice (ORYSA) = conditions: Ethephon 0 g/ha
Source text: as §1, §3, §4

## N#CCOC(=O)c1nc(-c2ccc3cc[nH]c3c2F)c(F)c(N)c1Cl [Compound A, cyanomethyl 4-amino-3-chloro-5-fluoro-6-(7-fluoro-1H-indol-6-yl)pyridine-2-carboxylate]
Glycine max (soybean); herbicide 7.5 g ae/ha alone
  % visual injury Obs: 100% and 80%
Glycine max (soybean); herbicide 10 g ae/ha alone
  % visual injury Obs: 99% and 90%
[1]; herbicide 7.5 g ae/ha alone
  % visual injury Obs: 23%
[1]; herbicide 10 g ae/ha alone
  % visual injury Obs: 35%
[1]; herbicide 15 g ae/ha alone
  % visual injury Obs: 45%
[2]; herbicide 7.5 g ae/ha alone
  % visual injury Obs: 68%
[2]; herbicide 10 g ae/ha alone
  % visual injury Obs: 73%
[2]; herbicide 15 g ae/ha alone
  % visual injury Obs: 75%
[3]; Compound A 7.5 g/ha
  Herbicidal Effects (% visual injury) ECHCG Obs: 90%
[3]; Compound A 10 g/ha
  Herbicidal Effects (% visual injury) ECHCG Obs: 94%
[4]; Compound A 7.5 g/ha
  Herbicidal Effects (% visual injury) RUMOB Obs: 8%
[4]; Compound A 10 g/ha
  Herbicidal Effects (% visual injury) RUMOB Obs: 18%
Rice (ORYSA); Compound A 7.5 g/ha
  Herbicidal Effects (% visual injury) ORYSA Obs: 15%
Rice (ORYSA); Compound A 10 g/ha
  Herbicidal Effects (% visual injury) ORYSA Obs: 18%
